Experimental data published in BindingDB's records for doi:10.1021/jm049768a (Eli Lilly, 2004).

Molecular target: 3-phosphoinositide-dependent protein kinase 1 (Homo sapiens) (UniProt O15530)
Assay: Inhibition of human PDK-1

| SMILES | IC50 [µM] |
| --- | --- |
| CN(C)C(=O)N1CCn2cc(C3=C(c4cnc5ccccn45)C(=O)NC3=O)c3cccc(c32)C1 [7-(4-Imidazo[1,2-a]pyridin-3-yl-2,5-dioxo-2,5-dihydro-1H-pyrrol-3-yl)-3,4-dihydro-1H-[1,4]diazepino[6,7,1-hi]indole-2-carboxylic acid dimethylamide] | > 20 |
| CC(C)OC(=O)N1CCn2cc(C3=C(c4cnc5ccccn45)C(=O)NC3=O)c3cccc(c32)C1 [7-(4-Imidazo[1,2-a]pyridin-3-yl-2,5-dioxo-2,5-dihydro-1H-pyrrol-3-yl)-3,4-dihydro-1H-[1,4]diazepino[6,7,1-hi]indole-2-carboxylic acid isopropyl ester] | 6.5 |
| O=C1NC(=O)C(c2cnc3ccccn23)=C1c1cn2c3c(cccc13)CN(C(=O)N1CCCCC1)CC2 [3-Imidazo[1,2-a]pyridin-3-yl-4-[2-(piperidine-1-carbonyl)-1,2,3,4-tetrahydro-[1,4]diazepino[6,7,1-hi]indol-7-yl]-pyrrole-2,5-dione] | 4.3 |
